According to patent publication US20120149678A1, “Organonitro Compounds for Use in Treating Non-Hodgkin's Lymphoma and Leukemia, and Methods Relating Thereto” (priority 2010, published 2012):

System: B-cell lymphoma Daudi cells
Test: ABDNAZ-induced apoptosis of B-cell lymphoma Daudi cells (sub-G1 cells, propidium iodide staining, flow cytometry)
Format: cell-based
Procedure: B-cell lymphoma Daudi cells were grown and maintained in Dulbecco's modified essential medium (DMEM) (INVITROGEN™, Grand Island, N.Y.) supplemented with 10% fetal calf serum, 100 units/mL penicillin, and 100 μg/mL streptomycin in a 37° C. humidified incubator with a mixture of 95% air and 5% CO2. Experiments were performed on exponentially growing cells with a cell population doubling time of approximately 20-36 hours.
After exposing the B-cell lymphoma Daudi cells to ABDNAZ, apoptotic cell death was quantitated by measuring the number of subdiploid (sub-G1) cells stained with propidium iodide (PI), according to a procedure described previously by Ning and coworkers. Ning, S., and Knox, S. J. in Int. J. Radiat. Oncol. Biol. Phys. (2004) 60:197-203. Briefly, ABDNAZ-treated and untreated control cells were collected and fixed with cold 100% ethanol. Cells were pelleted, treated with 100 μg/mL of RNase A in PBS-EDTA solution for 30 min and stained with 50 μg/mL of PI for 10 min at room temperature. The DNA content was analyzed with a FACScan flowcytometer (Becton Dickison, San Jose, Calif.). The percentage of cells in the sub-G1 phase was calculated as described previously by Ning and coworkers.
To examine whether ABDNAZ-induced apoptotic cell death was due to the generation of reactive oxygen species (ROS), Daudi cells were treated with a glutathione (GSH) precursor, N-acetylcysteine (NAC), and a GSH synthesis inhibitor, buthionine-(S,R)-sulfoxime (BSO), and the level of apoptosis was measured.

O=C(CBr)N1CC([N+](=O)[O-])([N+](=O)[O-])C1 [ABDNAZ, 1-bromoacetyl-3,3-dinitroazetidine]
Daudi cell apoptosis (2 mM ABDNAZ, measured at 24 hours (FIG. 1)): 30%
Daudi cell apoptosis (4 mM ABDNAZ, measured at 72 hours after exposure (FIG. 1)): 45%
ABDNAZ-induced apoptosis (Daudi cells pre-treated with N-acetylcysteine (GSH precursor) (FIG. 2)): 5%
ABDNAZ-induced apoptosis (Daudi cells pre-treated with buthionine-(S,R)-sulfoxime (GSH synthesis inhibitor) (FIG. 2)): 25%
ABDNAZ-induced apoptosis (Daudi cells, ABDNAZ without pre-treatment (FIG. 2)): 11%
